Data reported in publication PMC9663175, “Cryo-EM structures reveal the activation and substrate recognition mechanism of human enteropeptidase” (Nature Communications, 2022).

Molecular target: human enteropeptidase (hEP), enterokinase (Homo sapiens, UniProt P98073)
Assay: cryo-EM structure of inhibited hEP-core ([…] Å); SPR affinity; enzyme activity inhibition
Format: binding
Set-up: gene TMPRSS15; hEP-core resolved; SPR: commercial hEP

Sequence of human enteropeptidase (hEP), enterokinase (P98073 182-784): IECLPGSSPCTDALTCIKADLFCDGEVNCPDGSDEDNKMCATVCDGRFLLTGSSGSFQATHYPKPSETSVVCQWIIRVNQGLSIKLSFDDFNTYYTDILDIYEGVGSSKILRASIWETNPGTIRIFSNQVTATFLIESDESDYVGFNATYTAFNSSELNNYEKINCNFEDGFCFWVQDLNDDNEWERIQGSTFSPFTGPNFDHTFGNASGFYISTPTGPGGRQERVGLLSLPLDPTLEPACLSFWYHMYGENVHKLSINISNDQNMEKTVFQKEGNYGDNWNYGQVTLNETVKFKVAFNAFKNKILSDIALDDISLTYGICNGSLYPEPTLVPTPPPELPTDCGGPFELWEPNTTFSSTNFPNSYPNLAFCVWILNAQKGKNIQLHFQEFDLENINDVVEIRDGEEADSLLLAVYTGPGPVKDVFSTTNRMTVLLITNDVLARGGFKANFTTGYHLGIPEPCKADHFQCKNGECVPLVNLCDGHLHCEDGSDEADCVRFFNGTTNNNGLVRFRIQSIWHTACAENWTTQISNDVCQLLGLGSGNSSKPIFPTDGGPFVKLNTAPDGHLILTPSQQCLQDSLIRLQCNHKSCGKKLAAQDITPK
Sequence of human enteropeptidase (hEP), enterokinase (P98073 785-1019): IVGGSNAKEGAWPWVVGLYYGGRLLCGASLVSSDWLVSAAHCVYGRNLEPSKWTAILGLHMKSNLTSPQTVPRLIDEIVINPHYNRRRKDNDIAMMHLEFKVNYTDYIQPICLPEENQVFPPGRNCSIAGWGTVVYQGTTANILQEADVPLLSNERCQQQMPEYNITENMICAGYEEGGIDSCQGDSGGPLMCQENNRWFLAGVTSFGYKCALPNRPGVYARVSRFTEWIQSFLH

## N=C(N)c1ccc2cc(OC(=O)c3ccc(N=C(N)N)cc3)ccc2c1 [nafamostat]
  Kd: 95.1 µM
